This is an account of results in patent publication US11317627B2, “Soybean disease control composition and soybean disease control method” (priority 2015, dated 2022).

Assay [1] has as its system soybean rust fungus (Phakopsora pachyrhizi). Put plainly: Test on spore germination inhibition against soybean rust fungus. The class given is cell-based. Conditions: single use, 25° C., 5 hours. How it is done: Test Example 1: Test on Spore Germination Inhibition Against Soybean Rust Fungus (Phakopsora pachyrhizi)
A spore suspension of soybean rust fungus was added to an aqueous chemical solution prepared so as to contain each test compound in a predetermined concentration and the whole was kept in a moist chamber at 25° C. for 5 hours. Thereafter, the presence of spore germination was investigated using a microscope, the spore germination rate was determined, and the spore germination inhibition rate was determined according to the following calculation formula. Spore germination inhibition rate=(1−a/b)×100 • a: spore germination rate in treated section, b: spore germination rate in untreated section Colby's formula=(X+Y)−XY/100 • X: spore germination inhibition rate in single use of ingredient (a) • Y: spore germination inhibition rate in single use of ingredient (b)
Based on the obtained spore germination inhibition rate, the theoretical value (spore germination inhibition rate) was calculated using the Colby's formula. The theoretical value according to the Colby's formula was shown in brackets ( ) in Tables 1 to 6.
In the case where the experimental value is higher than the theoretical value, the composition of the present invention has a synergistic effect on soybean rust fungus.

A further assay has as its system Rhizoctonia solani. The assay can be described thus: Test on mycelial growth inhibition effect against soybean Rhizoctonia rot. It is filed as cell-based. Conditions: single use, PSA, 20° C., 2 days. Here is the method: Test Example 2: Test on Mycelial Growth Inhibition Effect Against Soybean Rhizoctonia Rot (Rhizoctonia solani)
A colony (4 mmϕ) obtained by preculture was inoculated to PSA containing a chemical agent of a predetermined concentration and, after culture at a room temperature of 20° C. for 2 days, the diameter of the grown colony was measured to determine a mycelial growth inhibition rate. Mycelial growth inhibition rate=(1−A/B)×100 • A: diameter of colony in treated section, B: diameter of colony in untreated section Colby's formula=(X+Y)−XY/100 • X: mycelial growth inhibition rate in single use of ingredient (a) • Y: mycelial growth inhibition rate in single use of ingredient (b)
Based on the obtained experimental value of the mycelial growth inhibition rate, the theoretical value of the mycelial growth inhibition rate was calculated using the Colby's formula. The theoretical value according to the Colby's formula was shown in brackets ( ) in Tables 7 to 11.
In the case where the experimental value is higher than the theoretical value, the composition of the present invention has a synergistic effect on Rhizoctonia solani.

Setting [2] is: Phakopsora pachyrhizi, read-out: Spore germination inhibition rate.
[3] abbreviates: Phakopsora pachyrhizi, 0.1 ppm, read-out: Spore germination inhibition rate.
Where [4] appears, read: Rhizoctonia solani, 48 h, 0.1 ppm, read-out: Mycelial growth inhibition rate.
Setting [5] is: Rhizoctonia solani, 48 h, 1 ppm, read-out: Mycelial growth inhibition rate.
Setting [6] is: Rhizoctonia solani, 48 h, read-out: Mycelial growth inhibition rate.

Regarding `Cn1cc(C(=O)Nc2cccc3c2[C@@H]2CC[C@H]3C2=C(Cl)Cl)c(C(F)F)n1` (racemic) [Benzovindiflupyr, benzovindiflupyr], the “Spore germination inhibition rate” value in assay [1] (0.1 ppm) amounted to 45%; in assay [1] (1 ppm), 52%. In addition, the “Mycelial growth inhibition rate” value in the assay with Rhizoctonia solani (0.1 ppm) was 71%.

Turning to `Fc1ccc([C@]2(Cn3cncn3)O[C@H]2c2ccccc2Cl)cc1` (racemic) [Epoxiconazole, epoxiconazole], the inhibition at 0.01 ppm in assay [1] (setting [2]) is 1%. Also, the inhibition at 0.1 ppm in assay [1] (setting [3]) turned out to be 5%; in the assay with Rhizoctonia solani (setting [4]), 39%. The inhibition at 1 ppm in the assay on Rhizoctonia solani (setting [5]) came out at 83%.

`CC(C1CC1)C(O)(Cn1cncn1)c1ccc(Cl)cc1` (stereo not shown) [Cyproconazole, cyproconazole]: the inhibition at 0.1 ppm in assay [1] (setting [3]) came to 9%; in the assay on Rhizoctonia solani (setting [4]), 34%. The inhibition at 0.01 ppm with Rhizoctonia solani (setting [6]) is 7%. The inhibition at 1 ppm with Rhizoctonia solani (setting [5]) amounted to 80%.

With `O=[N+]([O-])c1cc(C(F)(F)F)c(Cl)c([N+](=O)[O-])c1Nc1ncc(C(F)(F)F)cc1Cl` [Fluazinam, fluazinam], the results for the inhibition at 0.1 ppm (in assay [1] (setting [3]); in the assay on Rhizoctonia solani (setting [4])) were 27% and 73%, respectively. The inhibition at 1 ppm in assay [1] (Phakopsora pachyrhizi, 1 ppm, read-out: Spore germination inhibition rate) stood at 71%; with Rhizoctonia solani (setting [5]) it was 88%. Moreover, the inhibition at 0.001 ppm in the assay on Rhizoctonia solani (Rhizoctonia solani, 48 h, 0.001 ppm, read-out: Mycelial growth inhibition rate) came to 2%. In the assay on Rhizoctonia solani (setting [6]), the inhibition at 0.01 ppm was determined as 14%. In addition, the figures for the “Mycelial growth inhibition rate” value in the assay with Rhizoctonia solani (0.1 ppm) and in the assay with Rhizoctonia solani (1 ppm) were 78% and 92%, respectively.

Take `Cn1cc(C(=O)Nc2ccccc2-c2cc(F)c(F)c(F)c2)c(C(F)F)n1` [Fluxapyroxad, fluxapyroxad]: the “Spore germination inhibition rate” value in assay [1] (1 ppm) came out at 41%. The “Mycelial growth inhibition rate” value in the assay with Rhizoctonia solani (0.1 ppm) was determined as 42%.

Take `OC(Cc1ccccc1Cl)(Cn1nc[nH]c1=S)C1(Cl)CC1` (stereo not shown) [Prothioconazole, prothioconazole]: in assay [1] (setting [2]), the inhibition at 0.01 ppm is 37%. In addition, the inhibition at 0.1 ppm in assay [1] (setting [3]) is 89%.

As to `CC(C)(C)C(O)(CCc1ccc(Cl)cc1)Cn1cncn1` (stereo not shown) [Tebuconazole, tebuconazole], the inhibition at 0.01 ppm was determined as 12% in assay [1] (setting [2]) and 17% with Rhizoctonia solani (setting [6]). Besides, the figures for the inhibition at 0.1 ppm (in assay [1] (setting [3]); with Rhizoctonia solani (setting [4])) were 88% and 31%, respectively. The inhibition at 1 ppm in the assay with Rhizoctonia solani (setting [5]) is 70%.
